According to publication PMC9064041 (Journal of medicinal chemistry, 2020):
In brackets after ≈: the same amount, converted by molar mass.

Tested on: C. difficile ATCC BAA 1801
Experiment: MIC, broth microdilution, initial screening
Assay type: cell-based, Clostridioides difficile
Settings: for MIC: C. difficile ATCC BAA 1801, anaerobic, 48 hours
[1] = Clostridioides difficile, BAA1801, 48 h

SMILES | MIC [1] [µg/mL] | activity against C. difficile ATCC BAA 1801 in words | MIC [µg/mL]
O=C(Nc1nnc(-c2cccc(F)c2)o1)c1ccc(SC(F)(F)F)cc1 [compound 4, N-(5-(3-Fluorophenyl)-1,3,4-oxadiazol-2-yl)-4-((trifluoromethyl)thio)benzamide] | 0.03 (≈ 0.0783 µM) |  | 
O=C(Nc1nnc(-c2cccc(Cl)c2)o1)c1ccc(SC(F)(F)F)cc1 [compound 5, N-(5-(3-Chlorophenyl)-1,3,4-oxadiazol-2-yl)-4-((trifluoromethyl)thio)benzamide] | 0.03 (≈ 0.075 µM) |  | 
COc1cccc(-c2nnc(NC(=O)c3ccc(SC(F)(F)F)cc3)o2)c1 [compound 6, N-(5-(3-Methoxyphenyl)-1,3,4-oxadiazol-2-yl)-4-((trifluoromethyl)thio)benzamide] | 4 (≈ 10.1 µM) | only moderate to no actvity | 
O=C(Nc1nnc(-c2cccc(C(F)(F)F)c2)o1)c1ccc(SC(F)(F)F)cc1 [compound 7, N-(5-(3-Trifluoromethylphenyl)-1,3,4-oxadiazol-2-yl)-4-((trifluoromethyl)thio)benzamide] | 0.015 (≈ 0.0346 µM) |  | 
O=C(Nc1nnc(-c2ccc(F)cc2)o1)c1ccc(SC(F)(F)F)cc1 [compound 8, N-(5-(4-Fluorophenyl)-1,3,4-oxadiazol-2-yl)-4-((trifluoromethyl)thio)benzamide] | 4 (≈ 10.4 µM) |  | 
O=C(Nc1nnc(-c2ccc(Cl)cc2)o1)c1ccc(SC(F)(F)F)cc1 [compound 9, N-(5-(4-Chlorophenyl)-1,3,4-oxadiazol-2-yl)-4-((trifluoromethyl)thio)benzamide] | 2 (≈ 5 µM) |  | 
O=C(Nc1nnc(-c2ccc(C(F)(F)F)cc2)o1)c1ccc(SC(F)(F)F)cc1 [compound 10, N-(5-(4-Trifluoromethylphenyl)-1,3,4-oxadiazol-2-yl)-4-((trifluoromethyl)thio)benzamide] | 0.125 (≈ 0.288 µM) |  | 
COc1ccc(-c2nnc(NC(=O)c3ccc(SC(F)(F)F)cc3)o2)cc1 [compound 11, N-(5-(4-Methoxyphenyl)-1,3,4-oxadiazol-2-yl)-4-((trifluoromethyl)thio)benzamide] | 4 (≈ 10.1 µM) | only moderate to no actvity | 
CC(C)c1ccc(-c2nnc(NC(=O)c3ccc(SC(F)(F)F)cc3)o2)cc1 [compound 13, N-(5-(4-Isopropylphenyl)-1,3,4-oxadiazol-2-yl)-4-((trifluoromethyl)thio)benzamide] | 128 (≈ 314 µM) | only moderate to no actvity | 
O=C(Nc1nnc(-c2ccc(Cl)cc2Cl)o1)c1ccc(SC(F)(F)F)cc1 [compound 14, N-(5-(2,4-Dichlorophenyl)-1,3,4-oxadiazol-2-yl)-4-((trifluoromethyl)thio)benzamide] | 0.06 (≈ 0.138 µM) |  | 0.03 (≈ 0.0691 µM)
COc1ccc(Cl)cc1-c1nnc(NC(=O)c2ccc(SC(F)(F)F)cc2)o1 [compound 16, N-(5-(5-Chloro-2-methoxyphenyl)-1,3,4-oxadiazol-2-yl)-4-((trifluoromethyl)thio)benzamide] | 2 (≈ 4.65 µM) |  | 
O=C(Nc1nnc(-c2ccccn2)o1)c1ccc(SC(F)(F)F)cc1 [compound 17, N-(5-(Pyridin-2-yl)-1,3,4-oxadiazol-2-yl)-4-((trifluoromethyl)thio)benzamide] | 8 (≈ 21.8 µM) | only moderate activity | 
